Measured values published in US5849782A, “Methods of inhibiting neurodegenerative diseases” (The General Hospital Corporation, priority 1996, dated 1998).

Key:
[1] = test system: mice; test: Rectal temperature in mice; conditions: 7-NI 50 mg/kg
Experimental: To exclude the possibility that hypothermia may contribute to the protection, we maintained body temperature at 37.5° C. in controls, mice treated with four doses of MPTP at 20 mg/kg, and mice additionally treated with 7-NI (n=6 per group).

[2] = test system: Male Swiss-Webster mice; test: 3-nitrotyrosine to tyrosine ratio in mouse striatum after MPTP; type: in vivo; conditions: MPTP 20 mg/kg x4; 7-NI 25 or 50 mg/kg
Experimental: Dopamine, 3,4-dihydroxyphenlyacetic acid (DOPAC), homovanillic acid (HVA), p-tyrosine, and 3-nitrotyrosine were quantified by HPLC with 16-electrode electrochemical detection (Beal et al. (1990) supra) and are expressed as ng/mg protein (mean±SEM) (FIG. 1). 3-Nitrotyrosine data are expressed as ratios of 3-nitrotyrosine to p-tyrosine to normalize for differing brain concentrations of tyrosine. The statistical significance of differences was determined via one-way ANOVA followed by Fisher PLSD post hoc test to compare group means. All animal use procedures were in strict accordance with the NIH Guide for the Care and Use of Laboratory Animals and were approved by the local Animal Care Committee.
Role of Peroxynitrite in MPTP. To determine whether peroxynitrite plays a role in MPTP neurotoxicity, we therefore measured the ratio of 3-nitrotyrosine to tyrosine in mouse striatum following administration of MPTP.

[3] = test system: Male Sprague-Dawley rats; test: Striatal lesions produced by intrastriatal NMDA, AMPA, KA (TTC staining); type: in vivo, rat
Experimental: Stereotaxic Lesion Technique. Male Sprague-Dawley rats (Charles River, Cambridge, Mass.) weighing 300-325 g were anesthetized with pentobarbital (50 mg/kg i.p.) and positioned in a David Kopf stereotaxic instrument with the incisor bar set at 3.3 mm below the intermural line. Malonate, NMDA, KA, and AMPA were dissolved in 0.1M phosphate-buffered saline (pH, 7.4). Intrastriatal injections were made with a 10 μl Hamilton syringe fitted with a 30 gauge blunt-tipped needle into the left striatum at the coordinates 0.5 mm anterior bregma, 2.6 mm lateral to the midline and 5 mm ventral to the dura. Injection volumes were 1 μl (3 μmol malonate). All injections were made over 1 min and the needle was left in place for an additional 1 min before being slowly withdrawn. 7-NI was dissolved and sonicated in peanut oil at a concentration of 10 mg/ml. 50 mg/kg of 7-NI were administered i.p. 30 min before striatal injections of malonate, NMDA, KA and AMPA. […] Nine to ten animals were used per group in each experiment.
Quantification of Lesion Volume. One week after the striatal injections, animals were sacrificed by decapitation and the brains were rapidly removed, placed in cold saline for 10 min, and sectioned coronally into slices at 2 mm intervals. Slices were stained in 2% 2,3,5-triphenyltetrazolium chloride monohydrate (TTC) (Sigma, St. Louis, Mo.) solution at room temperature in the dark for 30 min followed by fixation in phosphate-buffered 4% paraformaldehyde. (Bederson et al. (1986) Stroke 17:1304-1308.) The lesioned area (noted by pale staining) was measured on the posterior surface of each section using an Apple Macintosh.COPYRGT. based image analysis system (Sony color video camera, Software: ColorSnap.COPYRGT. (Computer Friends Inc., Portland, Oreg.) and IPLab Spectrum.COPYRGT. (Signal Analytics, Vienna, Va.)). The lesions were evaluated by an experienced histologist, who verified the reliability of the TTC measurements in animals injected with malonate on adjacent sections stained with either TTC or Nissl stain (Schulz et al. (1995) J. Neurochem 64:in press).

[4] = Yoshida et al. 1994; cited from earlier work
[5] = test system: Male Sprague-Dawley rats; test: Lactate and lesion volume by magnetic resonance after intrastriatal malonate; type: in vivo, rat
Experimental: Localized Lactate Measurements by Magnetic Resonance Spectroscopy. The effects on lactate production of intrastriatal injections of 3 μmol malonate and the influence of pretreatment with 7-NI on these lactate levels were assessed in vivo using magnetic resonance imaging (Brouillet et al. (1993) J. Neurochem. 60:356-359). Male Sprague-Dawley rats weighing 275-325 g received either i.p. injections of peanut oil (vehicle) or 50 mg/kg 7-NI (n=5-6 per group). […] Rats were imaged under halothane/N2 O/O2 anesthesia on a 4.7 Tesla GE Omega CSI Imager using a 30 mm bird cage coil at 1.5-2 h after striatal malonate injections. […] Lesion volumes were measured using a T2 -weighted sequence (TR/TE 3200/80 ms) with slice thickness of 2.5 mm, and a field of view of 40 mm. Lesion volumes were measured using a criterion for abnormal tissue of being 2 standard deviations above the mean signal intensity in the contralateral unaffected striatum. Lactate was measured using double phase encoding three dimensional (x,y,ω) water suppressed chemical shift imaging sequence with an inversion pulse for lipid suppression described earlier (Jenkins et al. (1993) Neurology 43:2689-2695). […] Lactate concentrations were measured in the lesioned striatum by delineating the striatum in the water image and overlaying the contours on the lactate images. […]

[6] = test system: Male Sprague-Dawley rats; test: Striatal lesions produced by intrastriatal malonate (TTC staining); type: in vivo, rat; conditions: 7-NI 25 and 50 mg/kg i.p. 0.5 h before malonate
Experimental: Stereotaxic Lesion Technique. Male Sprague-Dawley rats (Charles River, Cambridge, Mass.) weighing 300-325 g were anesthetized with pentobarbital (50 mg/kg i.p.) and positioned in a David Kopf stereotaxic instrument with the incisor bar set at 3.3 mm below the intermural line. Malonate, NMDA, KA, and AMPA were dissolved in 0.1M phosphate-buffered saline (pH, 7.4). Intrastriatal injections were made with a 10 μl Hamilton syringe fitted with a 30 gauge blunt-tipped needle into the left striatum at the coordinates 0.5 mm anterior bregma, 2.6 mm lateral to the midline and 5 mm ventral to the dura. Injection volumes were 1 μl (3 μmol malonate). […]
Quantification of Lesion Volume. […] (Bederson et al. (1986) Stroke 17:1304-1308.) The lesioned area (noted by pale staining) was measured on the posterior surface of each section using an Apple Macintosh.COPYRGT. based image analysis system (Sony color video camera, Software: ColorSnap.COPYRGT. (Computer Friends Inc., Portland, Oreg.) and IPLab Spectrum.COPYRGT. (Signal Analytics, Vienna, Va.)). The lesions were evaluated by an experienced histologist, who verified the reliability of the TTC measurements in animals injected with malonate on adjacent sections stained with either TTC or Nissl stain (Schulz et al. (1995) J. Neurochem 64:in press).

[7] = 2 doses of 50 mg/kg 7-NI 4 h and 0.5 h before striatal injection

## O=[N+]([O-])c1cccc2cn[nH]c12 [7-NI, 7-nitroindazole]
[1]; 0.5 h after injection, p=0.03
  decrease in rectal temperature vs peanut oil controls: 0.6 °C
[1]; 0.5 h after injection, peanut oil controls 36.8±0.2
  rectal temperature: 36.2±0.1 °C
[1]; 1 h after injection
  change in rectal temperature vs peanut oil controls: no significant decrease
[2]
  MPTP-induced increase of 3-nitrotyrosine to tyrosine ratio in striatum: significantly attenuated
[3]; [7]
  protection against lesions produced by 5 nmol KA: no protection
  protection against lesions produced by 30 nmol AMPA: no protection
  protection against lesions produced by 200 nmol NMDA: 35%
[3]; single dose 7-NI 50 mg/kg i.p. before striatal injection, vehicle 25.0±2.4
  striatal lesion volume, 200 nmol NMDA: 21.3±3.4 mm^3
[3]; single dose 7-NI 50 mg/kg i.p. before striatal injection, vehicle 33.6±4.6
  striatal lesion volume, 30 nmol AMPA: 30.4±5.2 mm^3
[3]; single dose 7-NI 50 mg/kg i.p. before striatal injection, vehicle 39.5±2.9
  striatal lesion volume, 5 nmol KA: 36.3±4.4 mm^3
[4]
  efficacy against focal ischemic lesions in vivo: efficacious
[5]; 7-NI 50 mg/kg i.p. 0.5 h before striatal lesion, 1.5 h after malonate
  malonate-induced increase in striatal lactate concentrations (MR spectroscopy): significantly attenuated
[5]; 2 h after striatal malonate, n=6, vehicle 84.01±16.2, p<0.01
  lesion volume by T2-weighted MR imaging: 34.9±27.7 mm^3
[6]
  striatal lesion produced by 3 μmol malonate: significantly and dose dependently attenuated
